Earlier results as cited in patent publication US10194658B2, “High concentration low VOC liquid gibberellin” (Stoller Enterprises, Inc., priority 2015, dated 2019).

Settings: at 20° C.

vapor pressure: 0.08 mm Hg
SMILES: CC(O)CO (stereo not shown) [propylene glycol, propane-1,2-diol]
